Measured values from US20260216190A1, “TREATMENT OF HEMATOLOGICAL MALIGNANCIES WITH INHIBITORS OF MENIN” (Kura Oncology, Inc., priority 2018, published 2026).

Biological target: T1, menin-MLL interaction (Homo sapiens, UniProt O00255)
T1 sequence (O00255 1-610): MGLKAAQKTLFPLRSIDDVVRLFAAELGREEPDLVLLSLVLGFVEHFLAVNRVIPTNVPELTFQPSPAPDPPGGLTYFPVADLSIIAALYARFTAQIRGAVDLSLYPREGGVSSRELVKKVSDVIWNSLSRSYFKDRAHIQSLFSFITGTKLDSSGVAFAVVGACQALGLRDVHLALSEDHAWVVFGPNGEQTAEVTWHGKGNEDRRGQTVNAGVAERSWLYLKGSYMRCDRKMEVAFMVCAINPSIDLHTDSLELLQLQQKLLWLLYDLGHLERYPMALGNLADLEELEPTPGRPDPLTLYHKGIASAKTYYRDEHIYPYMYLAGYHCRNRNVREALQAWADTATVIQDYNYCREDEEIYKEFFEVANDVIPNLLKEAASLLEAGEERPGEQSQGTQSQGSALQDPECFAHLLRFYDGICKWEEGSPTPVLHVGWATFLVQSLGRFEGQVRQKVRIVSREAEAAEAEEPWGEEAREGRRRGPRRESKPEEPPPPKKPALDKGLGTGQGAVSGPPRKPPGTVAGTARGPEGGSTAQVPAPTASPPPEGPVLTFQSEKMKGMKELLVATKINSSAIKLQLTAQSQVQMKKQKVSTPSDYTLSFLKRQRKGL
Experiment: Fluorescence polarization (FP) competition assay
Type: binding
Details: read-out: Menin MLL 4-43 IC50

| IC50 [nM] | Structure (SMILES) |
| --- | --- |
| < 50 | Cc1c(CN2CCC(Nc3ncnc4sc(CC(F)(F)F)cc34)CC2)ccc2c1cc(C#N)n2CC(C1CC1)N1CCN(S(C)(=O)=O)CC1 (centres unmarked) [Compound I-23] |
| 50 to 250 | COCCNS(=O)(=O)N1CCN([C@@H](C)Cn2c(C#N)cc3c(C)c(CN4CCC(Nc5ncnc6sc(CC(F)(F)F)cc56)CC4)ccc32)CC1 [Compound I-142] |
